The source made the active and inactive calls. The calls are words filed in the database; no cut-off is given here.
Experiments:
Adenosine receptor A1 = molecular target: T1, Adenosine receptor A1 (Homo sapiens, UniProt P30542); experiment: Displacement of [125I]ABA from human recombinant adenosine A1 receptor by rapid filtration technique
T1 sequence (P30542 whole entry): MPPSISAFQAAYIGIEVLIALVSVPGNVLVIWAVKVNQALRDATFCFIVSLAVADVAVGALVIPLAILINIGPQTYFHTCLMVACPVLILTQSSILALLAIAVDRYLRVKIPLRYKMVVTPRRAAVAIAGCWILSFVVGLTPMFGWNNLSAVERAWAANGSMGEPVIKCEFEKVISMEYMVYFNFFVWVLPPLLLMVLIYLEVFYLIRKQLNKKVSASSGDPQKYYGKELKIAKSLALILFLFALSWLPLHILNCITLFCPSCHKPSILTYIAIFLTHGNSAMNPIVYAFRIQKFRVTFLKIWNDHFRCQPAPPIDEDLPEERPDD

Adenosine receptor A3 [1] = molecular target: T2, Adenosine receptor A3 (Homo sapiens, UniProt P0DMS8); experiment: Displacement of [125I]ABA from human recombinant adenosine A3 receptor by rapid filtration technique
T2 sequence (P0DMS8 whole entry): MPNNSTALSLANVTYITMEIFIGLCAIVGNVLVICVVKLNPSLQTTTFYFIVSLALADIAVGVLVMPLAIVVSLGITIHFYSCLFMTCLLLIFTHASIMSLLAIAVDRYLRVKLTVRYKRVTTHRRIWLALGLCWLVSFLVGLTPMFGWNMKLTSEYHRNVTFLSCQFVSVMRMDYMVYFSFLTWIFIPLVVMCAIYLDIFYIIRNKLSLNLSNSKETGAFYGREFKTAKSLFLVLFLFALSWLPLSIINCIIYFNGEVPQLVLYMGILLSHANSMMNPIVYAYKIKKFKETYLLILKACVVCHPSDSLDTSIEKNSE

[2] = molecular target: Adenosine receptors; A1 & A3 (Homo sapiens) (UniProt P30542+P0DMS8); experiment: Selectivity ratio of Ki for human recombinant adenosine A1 receptor to Ki for human recombinant adenosine A3 receptor
Adenosine receptor A2a [3] = molecular target: T3, Adenosine receptor A2a (Homo sapiens, UniProt P29274); experiment: Displacement of [3H]ZM241385 from human recombinant adenosine A2A receptor by rapid filtration technique
T3 sequence (P29274 whole entry): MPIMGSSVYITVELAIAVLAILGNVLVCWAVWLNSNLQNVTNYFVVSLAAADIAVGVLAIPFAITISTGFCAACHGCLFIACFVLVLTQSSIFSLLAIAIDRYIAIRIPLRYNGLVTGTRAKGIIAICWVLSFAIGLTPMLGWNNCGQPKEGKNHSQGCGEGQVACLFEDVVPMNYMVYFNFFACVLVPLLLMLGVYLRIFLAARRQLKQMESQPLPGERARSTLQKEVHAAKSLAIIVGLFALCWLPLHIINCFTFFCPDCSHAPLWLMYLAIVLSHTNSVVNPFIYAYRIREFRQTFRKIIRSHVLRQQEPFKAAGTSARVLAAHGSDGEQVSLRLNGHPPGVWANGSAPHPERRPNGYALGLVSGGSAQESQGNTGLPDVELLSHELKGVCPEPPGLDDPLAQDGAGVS

H9c2 [4] = experiment: Cardioprotective effect against hypoxic simulated ischemia in rat H9c2 cells assessed as reduction in cell death at 100 nM after 12 hrs by propidium iodide staining-based inverted microscopy in presence of adenosine A3 receptor antagonist MRS-1191; assay type: functional
H9c2 [5] = experiment: Cardioprotective effect against hypoxic simulated ischemia in rat H9c2 cells assessed as reduction in cell death at 10 nM after 12 hrs by propidium iodide staining-based inverted microscopy; assay type: functional
H9c2 [6] = experiment: Cardioprotective effect against hypoxic simulated ischemia in rat H9c2 cells assessed as reduction in cell death at 100 nM after 12 hrs by propidium iodide staining-based inverted microscopy; assay type: functional; details: for inhibition at 0.1 µM: H9c2, 12 h
Adenosine receptor A2a [7] = molecular target: T3, Adenosine receptor A2a; experiment: Displacement of [3H]ZM241385 from human recombinant adenosine A2A receptor at 10 uM by rapid filtration technique
Adenosine receptor A3 [8] = molecular target: T2, Adenosine receptor A3; experiment: Binding affinity to adenosine A3 receptor
[9] = Selectivity ratio of Ki for adenosine A1 receptor to Ki for adenosine A3 receptor

Compound	Ki (Adenosine receptor A1)	Ki (Adenosine receptor A3 [1])	Ratio Ki [2]	Ki (Adenosine receptor A2a [3])	inhibition (Adenosine receptor A2a [7])	inhibition (H9c2 [4])	inhibition (H9c2 [5])	inhibition at 0.1 µM (H9c2 [6])	inhibition (H9c2 [6])	Ki (Adenosine receptor A3 [8])	Ratio Ki [9]
CC1(C)CC(NC2NC=Nc3c2ncn3[C@@H]2O[C@H](CO)[C@@H](O)[C@H]2O)CC(C)(C)N1[O] (stereo partly drawn)	50 nM	8560 nM	0.0058	> 10000 nM	–	–	–	–	–	–	–
CNC(=O)[C@H]1O[C@@H](n2cnc3c(Nc4ccc5c(c4)C(C)(C)N([O])C5(C)C)ncnc32)[C@H](O)[C@@H]1O	800 nM	530 nM	1.5	> 10000 nM	–	–	–	–	–	–	–
CC1(C)c2ccc(CNC3NC=Nc4c3ncn4[C@@H]3O[C@H](CO)[C@@H](O)[C@H]3O)cc2C(C)(C)N1[O] (stereo partly drawn)	1140 nM	280 nM	4.1	> 10000 nM	–	–	–	–	–	–	–
CNC(=O)[C@H]1O[C@@H](n2cnc3c(NCc4ccc(CNC(=O)c5cc(C(C)(C)C)c(O)c(C(C)(C)C)c5)cc4)ncnc32)[C@H](O)[C@@H]1O	105 nM	5.63 nM	19	> 10000 nM	–	inactive	inactive	–	Active	–	–
CC1(C)c2ccc(NC3NC=Nc4c3ncn4[C@@H]3O[C@H](CO)[C@@H](O)[C@H]3O)cc2C(C)(C)N1[O] (stereo partly drawn)	–	–	–	> 10000 nM	–	–	–	–	–	–	–
CC1(C)c2ccc(C(=O)NCCc3ccc(Nc4ncnc5c4ncn5[C@@H]4O[C@H](CO)[C@@H](O)[C@H]4O)cc3)cc2C(C)(C)N1[O]	–	–	–	–	–	–	–	–	–	7 nM	3
CNC(=O)[C@H]1O[C@@H](n2cnc3c(NCc4ccc(NC(=O)CCC(=O)NCCc5cc(C(C)(C)C)c(O)c(C(C)(C)C)c5)cc4)ncnc32)[C@H](O)[C@@H]1O	42.1 nM	2.22 nM	19	> 10000 nM	–	–	–	–	–	–	–
CNC(=O)[C@H]1O[C@@H](n2cnc3c(NCc4ccc5c(c4)C(C)(C)N([O])C5(C)C)ncnc32)[C@H](O)[C@@H]1O	1290 nM	320 nM	4	> 10000 nM	–	–	–	–	–	–	–
CNC(=O)[C@H]1O[C@@H](n2cnc3c(NC4CC(C)(C)N([O])C(C)(C)C4)ncnc32)[C@H](O)[C@@H]1O	1890 nM	4160 nM	0.45	> 10000 nM	–	–	–	–	–	–	–
CNC(=O)[C@H]1O[C@@H](n2cnc3c(NCc4cccc(I)c4)ncnc32)[C@H](O)[C@@H]1O [IB-MECA]	–	–	–	–	–	inactive	inactive	54.1%	Active	–	–
CNC(=O)[C@H]1O[C@@H](n2cnc3c(Nc4ccc(CCNC(=O)c5ccc6c(c5)C(C)(C)N([O])C6(C)C)cc4)ncnc32)[C@H](O)[C@@H]1O	53.1 nM	25 nM	2.1	> 10000 nM	–	–	–	–	–	–	–
CC1(C)CC(CNc2ncnc3c2ncn3[C@@H]2O[C@H](CO)[C@@H](O)[C@H]2O)C(C)(C)N1[O] (stereo partly drawn)	–	–	0.0024	> 10000 nM	–	–	–	–	–	50 nM	400
CNC(=O)[C@H]1O[C@@H](n2cnc3c(NCC4CC(C)(C)N([O])C4(C)C)ncnc32)[C@H](O)[C@@H]1O (stereo partly drawn)	570 nM	1020 nM	0.56	> 10000 nM	–	–	–	–	–	–	–

The next lines start with results.

Ki (Adenosine receptor A1)	Ki (Adenosine receptor A3 [1])	Ratio Ki [2]	Ki (Adenosine receptor A2a [3])	inhibition (Adenosine receptor A2a [7])	Compound	inhibition (H9c2 [4])	inhibition (H9c2 [5])	inhibition at 0.1 µM (H9c2 [6])	inhibition (H9c2 [6])	Ki (Adenosine receptor A3 [8])	Ratio Ki [9]
290 nM	280 nM	1	> 10000 nM	–	CC1(C)NC(C)(C)c2cc(Nc3ncnc4c3ncn4[C@@H]3O[C@H](CO)[C@@H](O)[C@H]3O)ccc21	–	–	–	–	–	–
128 nM	9.02 nM	14	> 10000 nM	–	CNC(=O)[C@H]1O[C@@H](n2cnc3c(NCc4ccc(CNC(=O)c5cc(C(C)(C)C)cc(C(C)(C)C)c5)cc4)ncnc32)[C@H](O)[C@@H]1O	inactive	inactive	68.3%	–	–	–
960 nM	2480 nM	0.39	> 10000 nM	–	CNC(=O)[C@H]1O[C@@H](n2cnc3c(NC4CC(C)(C)NC(C)(C)C4)ncnc32)[C@H](O)[C@@H]1O	–	–	–	–	–	–
620 nM	9 nM	69	> 10000 nM	–	CNC(=O)[C@H]1O[C@@H](n2cnc3c(NCCc4cc(C(C)(C)C)c(O)c(C(C)(C)C)c4)ncnc32)[C@H](O)[C@@H]1O	–	–	–	–	–	–
26.2 nM	4.26 nM	6.2	–	27%	CNC(=O)[C@H]1O[C@@H](n2cnc3c(Nc4ccc(CCNC(=O)c5cc(OC)c(OC)c(OC)c5)cc4)ncnc32)[C@H](O)[C@@H]1O	inactive	inactive	–	Active	–	–
245 nM	2.25 nM	109	> 10000 nM	–	CNC(=O)[C@H]1O[C@@H](n2cnc3c(Nc4ccc(CCNC(=O)c5cc(C(C)(C)C)cc(C(C)(C)C)c5)cc4)ncnc32)[C@H](O)[C@@H]1O	inactive	inactive	–	Active	–	–
1170 nM	70 nM	16	> 10000 nM	–	CNC(=O)[C@H]1O[C@@H](n2cnc3c(Nc4ccc5c(c4)C(C)(C)NC5(C)C)ncnc32)[C@H](O)[C@@H]1O	–	–	–	–	–	–
150 nM	30 nM	5	–	20%	CC(C)(C)c1cc(CCNc2ncnc3c2ncn3[C@@H]2O[C@H](CO)[C@@H](O)[C@H]2O)cc(C(C)(C)C)c1O	–	–	–	–	–	–
243 nM	45 nM	5.4	> 10000 nM	–	CNC(=O)[C@H]1O[C@@H](n2cnc3c(Nc4ccc(CCNC(=O)c5cc(C(C)(C)C)c(O)c(C(C)(C)C)c5)cc4)ncnc32)[C@H](O)[C@@H]1O	–	–	–	–	–	–
76.8 nM	5.04 nM	15	> 10000 nM	–	CNC(=O)[C@H]1O[C@@H](n2cnc3c(NCc4ccc(CNC(=O)c5cc(OC)c(OC)c(OC)c5)cc4)ncnc32)[C@H](O)[C@@H]1O	inactive	inactive	–	Active	–	–
–	–	0.063	–	–	CC1(C)CC(NC2NC=Nc3c2ncn3[C@@H]2O[C@H](CO)[C@@H](O)[C@H]2O)CC(C)(C)N1 (stereo partly drawn)	–	–	–	–	–	–

— ChEMBL document CHEMBL1158581, “Synthesis and evaluation of new N6-substituted adenosine-5'-N-methylcarboxamides as A3 adenosine receptor agonists” (Bioorg Med Chem, 2010)
